In patent US4693884A, “Technetium-99m triphosphonates and tetraphosphonates for the scintigraphic visualization of res-containing organs and lymph vessels, and a process for their preparation” (Hoechst Aktiengesellschaft, priority 1982, dated 1987):

How the values were obtained:
[1] = Organ distribution of 99mTc-labeled substances in rats 30 minutes after injection as a function of the amount of substance administered; assay type: in vivo; conditions: for Blood/ml / Kidneys / Liver / Lung / Remainder of body / Spleen / Thyroid / tissue uptake at 0.5 h: 30 min after injection, n = 3; for tissue uptake at 0.5 h: rat, femur, iv, 0.05 mg
Procedure: Assuming that 2-20 mg of TPB, ETP, PTP or phytate are administered to humans, and assuming that the weight of human is 80 kg, this corresponds to an amount administered of 25-250 μg/kg of body weight. Calculating on the basis of the body weight of rats weighing 200 g, then administration of 5-50 μg of TPB, ETP, PTP or phytate per rat exactly reflects the relationships.
Organ distribution of ^99m Tc TPB, ^99m TC ETP and ^99m Tc
phytate in rats (n = 3) 30
minutes after injection as a function of the amount of substance
(all data as a percentage of the amount of activity administered)

[2] = Comparison of 99mTc TPB, 99mTc PTP and 99mTc phytate after intravenous injection to dogs; assay type: in vivo; conditions: intravenous, dogs
[3] = Accumulation of phosphoric acid derivatives investigated as technetium-99m diagnostic agents (bone, liver, RES); conditions: in vivo
From the text: It is possible to use phosphoric acid derivatives, particularly organic phosphonic acid derivatives, for bone scintigraphy. Many compounds have been investigated in the search for derivatives suitable as a technetium-99m diagnostic agent for bone.

[4] = Example 7: change in activity over the abdominal cavity followed with gamma camera (ROI technique); assay type: in vivo, dog (beagle); conditions: ear vein
Procedure: (§1) A labeling unit prepared as in Example 6 is made ready for injection with 5 ml of physiologic saline containing 10 mCi of ^99m Tc-pertechnetate. 1 ml of this solution is injected into the ear vein of a dog (beagle) weighing 18 kg, and the change in activity with time over the abdominal cavity is followed using a gamma camera by the ROI technique. It emerges that the uptake of activity by the liver is complete after about 10 min. The lung and kidneys are not imaged.

[5] = Example 6: distribution of activity over the organs in rats, PTP; assay type: in vivo, Sprague-Dawley rats; conditions: 30 min after injection; femoral vein; mean, n=6
Procedure: 3.5 g of 1,1,3,3-propanetetraphosphonic acid (PTP) are dissolved in 250 ml of double-distilled water, and the solution is adjusted to pH 6 with 1N NaOH. 210 mg of SnCl2.2H2 O, which are dissolved in 4.2 ml of 0.2N HCl, are added to this solution, and the pH is again adjusted to 6. The mixture is made up to 350 ml and individual 1 ml portions are prepared. (All the operations up to preparation of the individual portions are carried out under protective N2 gas.) The contents are frozen and freeze-dried. One unit contains 10 mg of PTP and 0.6 mg of SnCl2.2H2 O.
After storing for some weeks, the lyophilizate is dissolved in 10 ml of physiologic saline which contains 2 mCi of ^99m Tc-pertechnetate. After 30 min, Sprague-Dawley rats (n=6) weighing about 200 g each receive 0.1 ml of this solution injected into the femoral vein. The animals are sacrificed with ether 30 min after injection, and the distribution of the activity over the organs is determined. The mean figures below result (as percentage of the dose administered): […]

[6] = Example 7: elimination from the blood and renal excretion; assay type: in vivo, dog (beagle)
Procedure: as §1
The elimination from the blood and the renal excretion are also determined on the same animal. […] About 2.3% of the administered activity is excreted with the urine within the first 8 hours.

[7] = second amount column (printed 50 μg)
[8] = third amount column (printed 50 μg)

## O=P(O)(O)C(CC(P(=O)(O)O)P(=O)(O)O)P(=O)(O)O [PTP, propane-1,1,3,3-tetraphosphonic acid]
[1]; (50 μg)
  Blood/ml: 0.055 percentage of the amount of ac
  Kidneys: 0.16 percentage of the amount of activity administered
  Liver: 91.8 percentage of the amount of activity administered
  Lung: 0.30 percentage of the amount of activity administered
  Remainder of body: 9.3 percentage of the amount of activity administered
  Spleen: 1.31 percentage of the amount of activity administered
  Thyroid: 0.05 percentage of the amount of activity administered
  tissue uptake at 0.5 h: 0.052 %ID/g
[1]; [7]
  Blood/ml: 0.11 percentage of the amount of ac
  Kidneys: 0.37 percentage of the amount of activity administered
  Liver: 84.2 percentage of the amount of activity administered
  Lung: 0.45 percentage of the amount of activity administered
  Remainder of body: 16.0 percentage of the amount of activity administered
  Spleen: 1.23 percentage of the amount of activity administered
  Thyroid: 0.04 percentage of the amount of activity administered
  tissue uptake at 0.5 h: 0.088 %ID/g
[1]; [8]
  Blood/ml: 0.086 percentage of the amount of ac
  Kidneys: 0.38 percentage of the amount of activity administered
  Liver: 82.7 percentage of the amount of activity administered
  Lung: 0.43 percentage of the amount of activity administered
  Remainder of body: 18.4 percentage of the amount of activity administered
  Spleen: 1.10 percentage of the amount of activity administered
  Thyroid: 0.05 percentage of the amount of activity administered
  tissue uptake at 0.5 h: 0.089 %ID/g
[1]; all amounts of substance investigated
  accumulation of activity in the kidneys, blood, femur and remainder of the body compared with phytate: clearly lower than with phytate
[1]; deduction from the animal experiments
  suitability as diagnostic agent for visualization of RES-containing organs compared with 99mTc phytate: unambiguously superior
[2]; 30 min after injection
  excretion of activity with the urine: 0.05 % of the test dose
[2]
  excretion of activity with the urine, compared with phytate: markedly less
[2]; compared with phytate
  decrease in activity via the liver after accumulation in the liver is complete: slower
[3]
  accumulation in bone: virtually not at all
  accumulation in the liver: very preferentially accumulated in the liver
[4]
  time at which uptake of activity by the liver is complete: about 10 min
[5]
  Kidneys: 0.067 percentage of the dose adminis
  Liver: 94.0 percentage of the dose adminis
  Remainder of body: 4.8 percentage of the dose adminis
  Spleen: 1.9 percentage of the dose adminis
  Thyroid: 0.034 percentage of the dose adminis
  bladder + urine: 0.023 percentage of the dose adminis
  blood (1 ml): 0.083 percentage of the dose adminis
  bone: 0.7 percentage of the dose adminis
  lungs: 0.23 percentage of the dose adminis
[6]; ear vein, first phase
  clearance from the blood, half-life t1: 3.25 min
  share of phase t1 in clearance from the blood: 97%
[6]; ear vein, second phase
  clearance from the blood, half-life t2: 20.3 min
  share of phase t2 in clearance from the blood: 2.4%
[6]; ear vein, third phase
  clearance from the blood, half-life t3: 500 min
  share of phase t3 in clearance from the blood: 0.6%
[6]; within the first 8 hours
  administered activity excreted with the urine: About 2.3 % of the administered activity
